Reference: patent US20250319053A1, “INHIBITORS OF THE PEPTIDYL-PROLYL CIS/TRANS ISOMERASE (PIN1), COMBINATIONS AND USES THEREOF” (DANA-FARBER CANCER INSTITUTE, INC., priority 2021, published 2025)

Key:
[1] = Body weight of Pin1i-2 treated non-tumor-bearing B6 mice; assay type: in vivo, mouse; conditions: Day 0 = 100
Method: Table 1 is a table of blood test results together with body weight of Pin1i−2 treated non-tumor-bearing B6 mice. See also FIG. 1A-FIG. 1G, FIG. 8A-FIG. 8O, and FIG. 9A-9L. WT B6 mice (non-tumor-bearing mice) were treated with vehicle or Pin1i−2 (20, 40, or 60 mg/kg, i.p., daily) for 5 weeks, followed by examining mice body weight or the RBC, Hb, Plate, and kidney and liver function using blood tests at 3 weeks and 5 weeks (n=5).

splenocytes = assay: Immune profiling of splenocytes by flow cytometry; assay type: in vivo, mouse; conditions: 40 mg/kg i.p. daily for 5 weeks
Method: After filtered, cell lysate was collected. To assess cell surface expressions, cells were harvested by non-enzymatic cell dissociation solution, and resuspend in blocking solution (Cell Staining Buffer, BioLegend). Cells were incubated with following antibodies; […] For FOXP3 staining, cells were fixed and permeabilized using Foxp3/Transcription Factor Staining Buffer Set (00-5523, eBioscience), and incubated with FOXP3-FITC (11-5773-82, Invitrogen) for 30 mins at RT. For Granzyme B staining, cells were fixed and permeabilized using Intracellular Fixation & Permeabilization Kit (88-8824-00, eBioscience), and incubated with Granzyme B-FITC (515403, BioLegend) for 30 mins at RT. All antibodies were diluted according to manufacture instruction. Cells were analyzed using CytoFLEX flow cytometer and CytExpert software (Beckman Coulter, IN, USA). Table 2 is a table of immune profiling of splenocytes from Pin1i−2 treated non-tumor-bearing B6 mice. See also FIG. 1A-FIG. 1G, FIG. 8A-FIG. 8O, and FIG. 9A-9L. WT B6 mice (non-tumor-bearing mice) were treated with vehicle or Pin1i−2 (40 mg/kg, i.p., daily) for 5 weeks, followed by examining the immune profile of splenocytes using flow cytometry (n=5).

[2] = tested on: human PDAC cells (PDAC1 and PDAC2); assay: Cell proliferation assay (CellTiter-Glo) in PDAC cells; assay type: cell-based; conditions: 72 hrs
Method: Cells were seeded at a density of 5000 cells (PDAC1 and PDAC2), or 3000 cells (CAF1 and CAF2) per well in 96-well flat-bottomed plates and incubated for 24 h in culture medium. […] Control cells received dimethyl sulfoxide (DMSO) at a concentration equal to that of drug-treated cells for 72 hours. The cell viability was determined by CellTiter-Glo® 2.0 Assay (Promega) following the manufacturer's instructions.

human PDAC organoids = assay: Organoid apoptosis assay, co-culture with activated human PBMCs; assay type: cell-based; conditions: Pin1i−2 at 5 μM 3 days, αPD1 at 200 μg/mL for 40 hrs
Method: For assaying the effects of Pin1 inhibition on anti-PD1 or PDL1 sensitivity, organoids and PBMCs were co-culture as described previously (Dijkstra et al., 2018; Jiao et al., 2017). […] Human PBMCs (Precision for Medicine) were stimulated by PDAC organoid culture media, and 8.0×10^4 PBMCs were incubated with 2 pl CD3/28 beads (11161D, GIBCO) and 30 U recombinant IL-2 (200-02, Peprotech) per well in 96-well plates for 24 hours before starting co-culture. […] At the start of co-culture, a green-fluorescent caspase 3/7 probe reagent (R37111, Invitrogen) and Hoechst (135102, Invitrogen) were added to visualize cells undergoing apoptosis. Apoptotic organoids were monitored by live-cell time lapse imaging was started 2 hours after the start of co-culture using BZ-X800 fluorescence microscope (KEYENCE) and quantified using BZ-X800 analyzer (ver. 1.1.1.8, KEYENCE). […] Synergy scores were calculated by Synergyfinder ver 2 (synergyfinder.fimm.fi/) (Ianevski et al., Nucleic Acids Res. 48 IW1), […]-[…] (2020)).

Pin1 = Pin1 (Homo sapiens, UniProt Q13526); assay: Immunoblotting for Pin1 and substrate oncoproteins in PDAC cells; assay type: cell-based; set-up: endogenous in cells; host or cells: primary human patient-derived PDAC cells (PDAC1, PDAC2); conditions: 72 hrs
Chain of Pin1 (Q13526 whole entry): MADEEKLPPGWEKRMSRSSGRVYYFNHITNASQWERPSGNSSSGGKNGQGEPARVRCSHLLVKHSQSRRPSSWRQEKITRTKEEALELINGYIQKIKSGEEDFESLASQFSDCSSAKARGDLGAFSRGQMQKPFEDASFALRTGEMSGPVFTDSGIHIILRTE
Method: Cultured cells were lysed in RIPA buffer (50 mM Tris-HCl, pH 7.2, 150 mM NaCl, 1% NP40, 0.1% sodium dodecyl sulfate (SDS), 0.25% Na-deoxycholate) with freshly added phosphatase inhibitors containing 5 mM NaF and 0.2 mM sodium orthovanadate (NA3VO4), and proteinase inhibitors containing 2 μg/mL Aprotinin, 2 μg/mL Leupeptin, 2 μg/mL Pepstatin A, 1 mM DTT (dithiothreitol), 0.5 mM 4-(2-aminoethyl)-benzenesulfonyl fluoride (AEBSF), and 20 mM Chymotrypsin, and then mixed with the SDS sample buffer and loaded onto a gel after boiling for 10 minutes at 95° C. The proteins were resolved by polyacrylamide gel electrophoresis and transferred to PVDF membrane. The transferred membrane was washed three times with Tris-buffered saline containing 0.1% Tween 20 (TBST). After blocking with TBST containing 5% milk or 3% bovine serum albumin (BSA) for 1 h room temperature, the membrane was incubated with the appropriate primary antibody (diluted 1:500-1:10000) in 5% milk or 3% BSA-containing TBST at 4° C. overnight. After incubation with the primary antibody, the membrane was washed three times with TBST for a total of 30 min followed by incubation with horseradish peroxidase conjugated goat anti-rabbit or anti-mouse IgG (diluted 1:5000) for 1 h at room temperature. After three extensive washes with TBST for a total of 30 min, the immunoblots were visualized by enhanced chemi-luminescence. Immunoblotting results were quantified using ImageJ (NIH).

SMILES: CC(C)(C)CN(C(=O)CCl)C1CCS(=O)(=O)C1 (stereo not shown) [Pin1i−2, sulfopin]
- Body weight ([1]; 20 mg/kg i.p. daily, 3 weeks): 105.5371%
- Body weight ([1]; 20 mg/kg i.p. daily, 5 weeks): 107.5%
- Body weight ([1]; 40 mg/kg i.p. daily, 3 weeks): 107.9%
- Body weight ([1]; 40 mg/kg i.p. daily, 5 weeks): 106.7%
- Body weight ([1]; 60 mg/kg i.p. daily, 3 weeks): 104.8%
- Body weight ([1]; 60 mg/kg i.p. daily, 5 weeks): 107.3%
- CD3−CD11b+ Myeloid cells (splenocytes; n=5): 6.79 % of CD45+ cell
- CD8a+ T-cell (splenocytes; n=5): 14.30 % of CD45+ cell
- CD11b+Ly6G+ Myeloid Cells (splenocytes; n=5): 1.71 % of CD45+ cell
- CD11c+MHC-II+ DCs (splenocytes; n=5): 1.48 % of CD45+ cell
- CD45+CD3+ Cells (splenocytes; n=5): 27.77 % of CD45+ cell
- F4/80+ Macrophages (splenocytes; n=5): 3.54 % of CD45+ cell
- CTLA4 (splenocytes; listed under CD8a+ T-cell): 76.08 MFI
- Lag3 (splenocytes; listed under CD8a+ T-cell): 449.84 MFI
- MHC-ClassI (splenocytes; listed under CD8a+ T-cell): 11456.80 MFI
- PD-1 (splenocytes; listed under CD8a+ T-cell): 67.90 MFI
- PD-L1 (splenocytes; listed under CD11b+Ly6G+ Myeloid Cells): 12447.46 MFI
- PD-L1 (splenocytes; listed under CD11c+MHC-II+ DCs): 89012.88 MFI
- cell growth (proliferation assay) ([2]; PDAC cells): dose-dependently suppress cell growth
- Pin1 KO cell growth ([2]; Pin1-KO PDAC2 cells): fails to suppress Pin1 KO cell growth
- apoptosis of WT organoids (human PDAC organoids): promoted the apoptosis of WT organoids
- Pin1 and its substrate oncoproteins (IB) (Pin1): ablate Pin1
